Results reported in PubChem BioAssay AID1053139 (Broad Institute, 2014).
The source made the active and inactive calls.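 The calls were made as follows: active = AC50 for cell killing below 10 µM, with the signal falling as expected; inactive = the rest, including compounds acting in the opposite direction.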

system: not listed separately; test: viability loss in HepG2 hepatoma cells – cell-based, ATP luminescence, dry powder, set 16, cytotoxicity control, dose response (AID 1053139); conditions: HepG2 viability, ATP luminescence (CellTiter-Glo), 72 h; at 26 µM (top of the series)

Row | Structure (SMILES) | activity change, negative = cytotoxicity
1 | CO[C@H]1CN(C)C(=O)c2ccc(NC(=O)NC(C)C)cc2OC[C@H](C)N(Cc2ccc(-c3ccccn3)cc2)C[C@@H]1C | -5.04% (inactive)
2 | CCCC(=O)Nc1ccc2c(c1)OC[C@H](C)N(Cc1ccc(-c3ccccn3)cc1)C[C@H](C)[C@@H](OC)CN(C)C2=O | 10.3% (inactive)
3 | CCCNC(=O)Nc1ccc2c(c1)OC[C@H](C)N(Cc1ccc(-c3ccccn3)cc1)C[C@H](C)[C@@H](OC)CN(C)C2=O | -4.61% (inactive)
4 | CCCC(=O)Nc1ccc2c(c1)OC[C@H](C)N(Cc1ccccc1)C[C@H](C)[C@@H](OC)CN(C)C2=O | 6.6% (inactive)
5 | CO[C@H]1CN(C)C(=O)c2ccc(NC(=O)NC(C)C)cc2OC[C@H](C)N(Cc2ccccc2)C[C@@H]1C | 9.75% (inactive)
6 | CCCNC(=O)Nc1ccc2c(c1)OC[C@H](C)N(Cc1ccccc1)C[C@H](C)[C@@H](OC)CN(C)C2=O | 11.9% (inactive)

same assay, conditions: HepG2 viability, ATP luminescence (CellTiter-Glo), 72 h; at 50 µM (top of the series)

Row | Structure (SMILES) | activity change, negative = cytotoxicity
7 | CO[C@H]1CN(C)C(=O)c2cc(NC(=O)NC(C)C)ccc2OC[C@H](C)NC[C@@H]1C | -2.2% (inactive)
8 | CCC(CC)Nc1c(Nc2ccc3c(c2)C(=O)N(C)C[C@H](OC)[C@@H](C)CN(Cc2ccc(-c4ccccn4)cc2)[C@@H](C)CO3)c(=O)c1=O | -1.61% (inactive)
9 | CO[C@H]1CN(C)C(=O)c2cc(NC(=O)NC(C)C)ccc2OC[C@H](C)N(C(=O)Nc2ccc(-c3ccccn3)cc2)C[C@@H]1C | -15% (inactive)
10 | CO[C@H]1CN(C)C(=O)c2cc(NC(=O)OC(C)C)ccc2OC[C@H](C)N(Cc2ccc(-c3ccccn3)cc2)C[C@@H]1C | 12.6% (inactive)
11 | CO[C@H]1CN(C)C(=O)c2cc(Nc3c(NC4CCCC4)c(=O)c3=O)ccc2OC[C@H](C)N(Cc2ccc(-c3ccccn3)cc2)C[C@@H]1C | 6.09% (inactive)
12 | CO[C@H]1CN(C)C(=O)c2cc(NC(=O)NC(C)C)ccc2OC[C@H](C)N(Cc2ccccc2F)C[C@@H]1C | 12.7% (inactive)
13 | CO[C@H]1CN(C)C(=O)c2cc(NC(=O)NC(C)C)ccc2OC[C@H](C)N(C(=O)c2ccccc2)C[C@@H]1C | -5.8% (inactive)
14 | CO[C@H]1CN(C)C(=O)c2cc(NC(=O)NC(C)C)ccc2OC[C@H](C)N(Cc2ccc(-c3cccnc3)cc2)C[C@@H]1C | 40.3% (inactive)
15 | CO[C@H]1CN(C)C(=O)c2cc(NC(=O)NC(C)C)ccc2OC[C@H](C)N(C(=O)c2ccc(-c3ccccn3)cc2)C[C@@H]1C | -10.3% (inactive)
16 | CO[C@H]1CN(C)C(=O)c2cc(NC(=O)NC(C)C)ccc2OC[C@H](C)N(Cc2ccc(-c3ccccn3)cc2)C[C@@H]1C | -5.64% (inactive)
17 | CO[C@H]1CN(C)C(=O)c2cc(Nc3c(NC(C)C)c(=O)c3=O)ccc2OC[C@H](C)N(Cc2ccc(-c3ccccn3)cc2)C[C@@H]1C | -15.4% (inactive)
18 | CO[C@H]1CN(C)C(=O)c2cc(N)ccc2OC[C@H](C)N(Cc2ccc(-c3ccccn3)cc2)C[C@@H]1C | 19.6% (inactive)
19 | CO[C@H]1CN(C)C(=O)c2cc(NC(=O)NC(C)C)ccc2OC[C@H](C)N(Cc2ccncc2)C[C@@H]1C | -4.57% (inactive)
20 | CO[C@H]1CN(C)C(=O)c2cc(NC(=O)NC(C)C)ccc2OC[C@H](C)N(Cc2ccc(-c3ccncc3)cc2)C[C@@H]1C | -12.8% (inactive)
21 | CO[C@H]1CN(C)C(=O)c2cc(NC(=O)NC(C)C)ccc2OC[C@H](C)N(Cc2cccnc2)C[C@@H]1C | 6.28% (inactive)
22 | CO[C@H]1CN(C)C(=O)c2cc(Nc3ncccn3)ccc2OC[C@H](C)N(Cc2ccc(-c3ccccn3)cc2)C[C@@H]1C | 15.4% (inactive)
23 | CO[C@H]1CN(C)C(=O)c2cc(Nc3c(NC4CCCCC4)c(=O)c3=O)ccc2OC[C@H](C)N(Cc2ccc(-c3ccccn3)cc2)C[C@@H]1C | -22.3% (inactive)
24 | CO[C@H]1CN(C)C(=O)c2cc(NC(=O)NC(C)C)ccc2OC[C@H](C)N(Cc2ccc(F)cc2)C[C@@H]1C | 0.295% (inactive)
25 | CO[C@H]1CN(C)C(=O)c2cc(NC(=O)NC(C)C)ccc2OC[C@H](C)N(Cc2ccccn2)C[C@@H]1C | 1.78% (inactive)
26 | CO[C@H]1CN(C)C(=O)c2cc(NC(=O)NC(C)C)ccc2OC[C@H](C)N(Cc2cccc(F)c2)C[C@@H]1C | -1.88% (inactive)

system: HepG2 viability, ATP luminescence (CellTiter-Glo), 72 h; test: as above; conditions: not given

Row | Structure (SMILES) | AC50
27 | CO[C@H]1CN(C)C(=O)c2cc(NC(=O)NC(C)C)ccc2OC[C@H](C)N(Cc2ccc(-c3cncnc3)cc2)C[C@@H]1C | > 100 µM (inactive)
28 | CO[C@H]1CN(C)C(=O)c2cc(Nc3c(NC4CC4)c(=O)c3=O)ccc2OC[C@H](C)N(Cc2ccc(-c3ccccn3)cc2)C[C@@H]1C | 38.4 µM
29 | CO[C@H]1CN(C)C(=O)c2cc(NC(=O)C(C)C)ccc2OC[C@H](C)N(Cc2ccc(-c3ccccn3)cc2)C[C@@H]1C | > 24 µM (inactive)
30 | CO[C@H]1CN(C)C(=O)c2cc(NC(=O)NC(C)C)ccc2OC[C@H](C)N(Cc2cncnc2)C[C@@H]1C | > 100 µM (inactive)
